Activity calls are given as the source filed them. The rule behind the calls is not given here.
Experiments:
[1] = target: T1, Ubiquitin carboxyl-terminal hydrolase isozyme L5 (Homo sapiens) (UniProt Q9Y5K5); experiment: Inhibition of UCHL5 (1 to 228 residues) (unknown origin) expressed in Escherichia coli BL21 (DE3) using Ub-AMC as substrate at 5 uM by fluorescence based analysis
T1 sequence (whole entry): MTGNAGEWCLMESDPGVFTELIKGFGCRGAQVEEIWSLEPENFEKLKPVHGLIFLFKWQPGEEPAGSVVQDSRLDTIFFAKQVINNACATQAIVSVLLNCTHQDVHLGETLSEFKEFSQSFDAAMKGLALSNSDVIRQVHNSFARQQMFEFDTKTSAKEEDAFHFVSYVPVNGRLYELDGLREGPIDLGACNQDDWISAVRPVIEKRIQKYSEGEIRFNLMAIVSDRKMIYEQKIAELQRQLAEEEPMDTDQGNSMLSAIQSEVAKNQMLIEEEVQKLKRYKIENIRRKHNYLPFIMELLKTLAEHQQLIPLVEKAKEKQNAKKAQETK

[2] = target: T2, Ubiquitin carboxyl-terminal hydrolase isozyme L3 (Homo sapiens) (UniProt P15374); experiment: Inhibition of UCHL3 (unknown origin) expressed in Escherichia coli BL21 (DE3) using Ub-AMC as substrate at 5 uM by fluorescence based analysis
T2 sequence (whole entry): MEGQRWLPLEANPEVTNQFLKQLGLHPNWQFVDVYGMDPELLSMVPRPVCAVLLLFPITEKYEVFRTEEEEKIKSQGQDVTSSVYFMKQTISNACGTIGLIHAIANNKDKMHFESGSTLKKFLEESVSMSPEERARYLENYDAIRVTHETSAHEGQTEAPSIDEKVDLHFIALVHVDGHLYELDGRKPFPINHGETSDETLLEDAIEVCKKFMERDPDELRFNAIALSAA

[3] = target: T3, Ubiquitin carboxyl-terminal hydrolase 8 (Homo sapiens) (UniProt P40818); experiment: Inhibition of USP8 (734 to 1110 residues) (unknown origin) expressed in Escherichia coli BL21 (DE3) using Ub-AMC as substrate at 5 uM by fluorescence based analysis
T3 sequence (whole entry): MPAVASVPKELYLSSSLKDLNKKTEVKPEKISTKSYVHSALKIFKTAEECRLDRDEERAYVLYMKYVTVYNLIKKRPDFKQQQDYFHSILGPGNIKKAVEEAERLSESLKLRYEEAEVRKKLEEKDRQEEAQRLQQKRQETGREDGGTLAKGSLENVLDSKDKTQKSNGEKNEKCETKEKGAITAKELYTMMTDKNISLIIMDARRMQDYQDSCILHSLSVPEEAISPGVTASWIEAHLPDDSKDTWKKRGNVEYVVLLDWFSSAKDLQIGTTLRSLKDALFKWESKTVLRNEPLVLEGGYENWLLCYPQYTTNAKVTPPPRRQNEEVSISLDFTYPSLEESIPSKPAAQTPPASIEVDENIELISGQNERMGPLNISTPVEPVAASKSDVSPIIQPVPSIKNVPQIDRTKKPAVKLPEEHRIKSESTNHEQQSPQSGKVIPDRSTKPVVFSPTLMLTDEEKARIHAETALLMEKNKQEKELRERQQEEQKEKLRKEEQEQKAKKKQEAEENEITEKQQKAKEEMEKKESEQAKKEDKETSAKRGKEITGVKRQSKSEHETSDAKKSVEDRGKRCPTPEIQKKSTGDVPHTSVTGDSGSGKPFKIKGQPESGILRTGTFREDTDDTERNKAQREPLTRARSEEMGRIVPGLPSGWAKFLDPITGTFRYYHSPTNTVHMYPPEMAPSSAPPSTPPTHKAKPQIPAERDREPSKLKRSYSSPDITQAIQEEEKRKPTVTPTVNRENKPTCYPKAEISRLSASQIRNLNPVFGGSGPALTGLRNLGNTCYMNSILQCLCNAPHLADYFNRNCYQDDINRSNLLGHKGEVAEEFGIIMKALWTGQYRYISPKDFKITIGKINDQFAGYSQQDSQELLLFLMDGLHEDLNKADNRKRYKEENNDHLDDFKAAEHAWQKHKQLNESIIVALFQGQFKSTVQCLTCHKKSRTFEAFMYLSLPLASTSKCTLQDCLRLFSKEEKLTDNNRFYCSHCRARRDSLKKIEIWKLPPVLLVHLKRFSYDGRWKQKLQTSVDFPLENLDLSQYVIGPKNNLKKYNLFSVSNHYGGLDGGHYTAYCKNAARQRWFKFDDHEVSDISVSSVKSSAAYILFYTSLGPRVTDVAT

[4] = target: T4, Ubiquitin carboxyl-terminal hydrolase 2 (Homo sapiens) (UniProt O75604); experiment: Inhibition of USP2 (258 to 605 residues) (unknown origin) expressed in Escherichia coli BL21 (DE3) using Ub-AMC as substrate at 5 uM by fluorescence based analysis
T4 sequence (whole entry): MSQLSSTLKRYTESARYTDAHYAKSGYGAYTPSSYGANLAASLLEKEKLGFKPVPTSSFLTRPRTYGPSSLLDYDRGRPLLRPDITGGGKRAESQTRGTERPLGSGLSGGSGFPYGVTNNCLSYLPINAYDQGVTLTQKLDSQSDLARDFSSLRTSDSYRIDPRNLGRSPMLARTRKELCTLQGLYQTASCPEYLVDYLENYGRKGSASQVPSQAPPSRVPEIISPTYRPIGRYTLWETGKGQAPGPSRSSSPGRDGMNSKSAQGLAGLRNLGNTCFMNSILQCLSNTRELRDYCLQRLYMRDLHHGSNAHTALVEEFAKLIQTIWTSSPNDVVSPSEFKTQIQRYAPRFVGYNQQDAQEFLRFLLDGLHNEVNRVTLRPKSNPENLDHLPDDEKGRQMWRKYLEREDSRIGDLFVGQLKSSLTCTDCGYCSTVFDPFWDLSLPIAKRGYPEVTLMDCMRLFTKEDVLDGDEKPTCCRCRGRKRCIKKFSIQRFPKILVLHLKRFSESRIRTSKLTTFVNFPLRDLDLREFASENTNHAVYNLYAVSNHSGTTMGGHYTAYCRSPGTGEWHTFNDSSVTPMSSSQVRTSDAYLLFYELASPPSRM

| inhibition [1] | inhibition [2] | inhibition [3] | inhibition [4] | SMILES |
| --- | --- | --- | --- | --- |
| Active | Active | Active | Active | CS(=O)(=O)c1ccc(C(=O)Nc2ccc(Cl)c(-c3ccc4c(c3)CCNC4)c2)c(Cl)c1 |
| Active | Active | Active | Active | CS(=O)(=O)c1ccc(C(=O)Nc2ccc(Cl)c(-c3ccc4c(c3)CNC4)c2)c(Cl)c1 |
| Active | Active | Active | Active | CS(=O)(=O)c1ccc(C(=O)Nc2ccc(Cl)c(-c3ccc(C4(N)CC4)cc3)c2)c(Cl)c1 |

— ChEMBL document CHEMBL5325426, “Structure-based discovery of potent USP28 inhibitors derived from Vismodegib” (Eur J Med Chem, 2023)
